Results reported in PubChem BioAssay AID192 (DTP/NCI, 2004).
Values joined by “and” are separate entries in the source; they are usually repeats but may differ in a detail not shown here. Identical values can stand only once. Inconclusive results and toxic doses are left out.

Tested on: BDF1 mice, B16 melanoma ip, median survival T/C
Experiment: NCI In Vivo Anticancer Drug Screen. Data for tumor model B16 Melanoma (intraperitoneal) in B6D2F1 (BDF1) mice
Conditions: endpoint: median survival time, schedule: Q01DX009 (ip), higher = longer survival
Procedure, shortened: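 Values are ratios of treated (T) to vehicle-control (C) measurements of survival or tumor size in tumor-bearing mice.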

[1] = dose: 25.0 mg/kg/injection, vehicle: saline with Tween-80
[2] = dose: 200.0 mg/kg/injection, vehicle: saline with Tween-80
[3] = dose: 100.0 mg/kg/injection, vehicle: saline with Tween-80
[4] = dose: 400.0 mg/kg/injection, vehicle: saline with Tween-80
[5] = dose: 50.0 mg/kg/injection, vehicle: saline with Tween-80

## C=C1CCN(c2ccc([N+](=O)[O-])cc2)C1=O
dose: 4.0 mg/kg/injection, vehicle: saline + alcohol
  T/C: 97 % of control
dose: 8.0 mg/kg/injection, vehicle: saline + alcohol
  T/C: 107 % of control
dose: 16.0 mg/kg/injection, vehicle: saline + alcohol
  T/C: 98 % of control
dose: 32.0 mg/kg/injection, vehicle: saline + alcohol
  T/C: 89 % of control
dose: 64.0 mg/kg/injection, vehicle: saline + alcohol
  T/C: 95 % of control

## CC(=O)NNC(=O)c1ccccn1
[1]
  T/C: 87 % of control
dose: 25.0 mg/kg/injection, vehicle: water
  T/C: 93 % of control and 116 % of control
dose: 50.0 mg/kg/injection, vehicle: water
  T/C: 110 % of control and 113 % of control
dose: 100.0 mg/kg/injection, vehicle: water
  T/C: 93 % of control and 100 % of control
[2]
  T/C: 89 % of control

## Oc1cccnc1CN1CCOCC1
[3]
  T/C: 106 % of control
[2]
  T/C: 109 % of control
[4]
  T/C: 100 % of control

## COc1ccccc1NC(=O)Nc1cccc(C(C)=O)c1
[3]
  T/C: 94 % of control
[2]
  T/C: 92 % of control

## CCN(CC)C(C(=O)Nc1ccccc1)C(=O)Nc1ccccc1
[3]
  T/C: 100 % of control
[2]
  T/C: 90 % of control
[4]
  T/C: 95 % of control

## C/C(=N/NC(N)=S)c1ccc2ccccc2c1
dose: 6.0 mg/kg/injection, vehicle: saline with Tween-80
  T/C: 111 % of control
dose: 12.0 mg/kg/injection, vehicle: saline with Tween-80
  T/C: 105 % of control

## OCN(CO)c1nc(N(CO)CO)nc(N(CO)CO)n1
dose: 6.25 mg/kg/injection, vehicle: saline with Tween-80
  T/C: 97 % of control
dose: 12.5 mg/kg/injection, vehicle: saline with Tween-80
  T/C: 100 % of control
[1]
  T/C: 94 % of control
[5]
  T/C: 92 % of control
[2]
  T/C: 90 % of control

## O=C(c1ccccc1)C1NC1c1ccccc1 (stereo not given)
dose: 20.0 mg/kg/injection, vehicle: Klucel (hydroxypropylcellulose) (HPC)
  T/C: 100 % of control
dose: 40.0 mg/kg/injection, vehicle: Klucel (hydroxypropylcellulose) (HPC)
  T/C: 97 % of control
dose: 80.0 mg/kg/injection, vehicle: Klucel (hydroxypropylcellulose) (HPC)
  T/C: 94 % of control

## CCN(CC)CCCNc1nccc2c(C)c3[nH]c4ccncc4c3cc12
dose: 0.37 mg/kg/injection, vehicle: other
  T/C: 115 % of control
dose: 0.38 mg/kg/injection, vehicle: other
  T/C: 160 % of control
dose: 0.75 mg/kg/injection, vehicle: other
  T/C: 171 % of control and 177 % of control
dose: 1.5 mg/kg/injection, vehicle: other
  T/C: 163 % of control and 218 % of control
dose: 3.0 mg/kg/injection, vehicle: other
  T/C: 163 % of control and 233 % of control
dose: 6.0 mg/kg/injection, vehicle: other
  T/C: 188 % of control and 213 % of control

## CCC1OCC(C(Cl)CCl)O1 (stereo not given)
dose: 12.5 mg/kg/injection, vehicle: Klucel (hydroxypropylcellulose) (HPC)
  T/C: 90 % of control and 97 % of control
dose: 25.0 mg/kg/injection, vehicle: Klucel (hydroxypropylcellulose) (HPC)
  T/C: 88 % of control and 109 % of control
dose: 50.0 mg/kg/injection, vehicle: Klucel (hydroxypropylcellulose) (HPC)
  T/C: 86 % of control and 97 % of control
dose: 100.0 mg/kg/injection, vehicle: Klucel (hydroxypropylcellulose) (HPC)
  T/C: 94 % of control and 105 % of control
dose: 200.0 mg/kg/injection, vehicle: Klucel (hydroxypropylcellulose) (HPC)
  T/C: 89 % of control and 117 % of control
dose: 400.0 mg/kg/injection, vehicle: Klucel (hydroxypropylcellulose) (HPC)
  T/C: 105 % of control

## O=C(N[C@H](CO)[C@H](O)c1ccc([N+](=O)[O-])cc1)C(Cl)Cl
[5]
  T/C: 100 % of control
[3]
  T/C: 99 % of control
[2]
  T/C: 88 % of control
[4]
  T/C: 88 % of control
dose: 800.0 mg/kg/injection, vehicle: saline with Tween-80
  T/C: 87 % of control
